pKi: −log10 of the molar value.
Molecular target: Substance-P receptor (Homo sapiens, UniProt P25103)
Assay: In vitro binding affinity against substance P (NK-1) receptor in human IM-9 cell using [125I]BH-SP
Type: cell-based

Chain of Substance-P receptor (P25103 whole entry): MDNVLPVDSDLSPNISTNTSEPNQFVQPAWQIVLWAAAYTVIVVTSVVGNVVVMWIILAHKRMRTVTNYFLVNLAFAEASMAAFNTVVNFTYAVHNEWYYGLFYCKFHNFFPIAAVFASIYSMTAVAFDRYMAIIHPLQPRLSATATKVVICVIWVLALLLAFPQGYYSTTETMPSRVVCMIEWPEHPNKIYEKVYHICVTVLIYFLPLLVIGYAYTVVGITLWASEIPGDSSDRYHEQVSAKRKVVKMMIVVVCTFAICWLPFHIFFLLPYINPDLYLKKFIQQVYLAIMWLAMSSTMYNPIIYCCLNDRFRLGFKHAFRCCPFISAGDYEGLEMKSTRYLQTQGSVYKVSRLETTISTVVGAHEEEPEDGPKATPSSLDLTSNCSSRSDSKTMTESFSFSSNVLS

## COc1ccccc1[C@@H]1CC[C@@]2(CCCN[C@H]2c2ccccc2)NC1
  pKi: 8.70

## COc1ccccc1[C@@H]1CC[C@@]2(CCCN[C@H]2c2ccccc2)N1
  pKi: < 5.00
